Where two headings read alike, the source gives them in different places.
System: E. coli lactose permease expression cassette mutant strains
Assay: Chloramphenicol resistance / MIC of strains with lactose permease translationally coupled to chloramphenicol resistance gene
Assay type: cell-based, Escherichia coli
Conditions: for MIC: Escherichia coli
Description: Two strains were constructed in which lactose permease was knockout out from the genome. In both strains a pSC101 plasmid containing a kanamycin resistance gene was transformed, with the difference that one of the plasmids contained a constitutively expressed lactose permease as described in Example 1 and 2, resulting in a reference strain MG1655ΔlacY pSC101_kan and the lacY_cat translational coupled strain MG1655ΔlacY pSC101_kan_lacYsynthetic_cat as described in Example 4 and FIG. 5. Both strains were grown in a minimal medium as described above at different chloramphenicol concentrations (between 0 and 30 mg/l).
This method is however limited by the expression of the beta galactosidase gene which becomes the rate limiting step for growth. Therefore, the expression of the lactose permease gene was measured via the above described translational coupling system described above. The minimal inhibition concentration (MIC) for chloramphenicol is indicative for the expression of the lactose permease gene and this was determined for each of the cassettes. The lowest MIC that still resulted into the same growth rate compared to the wild type was used as an indicator for the expression of the wild type lactose permease expression.

## O=C(N[C@H](CO)[C@H](O)c1ccc([N+](=O)[O-])cc1)C(Cl)Cl [chloramphenicol]
read-out: minimal inhibition concentration (MIC), cassettes with the lowest MIC that have the same growth rate as the wild type strain
  MIC: ~20 µg/mL
read-out: minimal inhibition concentration (MIC), mutant strains with a slightly lower growth rate
  MIC: 15 to 20 µg/mL
read-out: minimal inhibition concentration (MIC), mutant strains with equal or higher growth rate
  MIC: 20 to 80 µg/mL
Chloramphenicol 0 to 30 mg/l, minimal medium, 48 and 92 hours
  growth inhibition of reference strain MG1655ΔlacY pSC101_kan versus lacY_cat coupled strain: inhibited at a lower chloramphenicol concentration than the mutant lacY_cat translational coupled strain

Source: patent US10858684B2, “Mutant microorganisms resistant to lactose killing” (Inbiose N.V., priority 2014, dated 2020)
